# Results: US20190269705A1, “METHODS AND MATERIALS FOR TREATING GRAFT VERSUS HOST DISEASE” (Regents of the University of Minnesota, priority 2017, published 2019)
# “Also recorded” adds a separate entry of the source.
# Tests used:
# Th1 cells [1] = test: RNA-Seq and gene set enrichment analysis, Th1; type: cell-based, mouse
# Method: (§1) ATAC-Seq: Crude nuclei pellets were isolated as described elsewhere (see, e.g., Buenrostro et al., 2013 Nat Meth. 10(12):1213-1218) with modifications. Briefly, naïve CD4 T cells were skewed to Th1 and Th17 subsets in vitro with vehicle or in the presence of 500 nM CB839. At Day 5, T cells were re-isolated for CD4+ cells using Miltenyi CD4+ negative selection kit (Cat #: 130-104-454). 1×10^5 cells were removed for nuclei extraction in ATAC-Seq lysing buffer. Cells were exposed to Tn5+ adaptor proteins from Nextera DNA for 30 min at 37° C. and immediately placed on ice. Transposed eluate was amplified via PCR using Nextera DNA preparation kit (Illumina, Cat #: FC-121-1030), NEBNext High-fidelity 2× PCR mix (New England Labs, Cat #: M0541), and multiplexed (Illumina, Cat #: FC-121-1011). Samples were purified using Zymo DNA cleanup kit (Cat #: D4011). QC of samples was run on bioanalyzer before being sent for sequencing. RNA-Seq: Th1 and Th17 cells skewed with or without CB839 were isolated as previously described and total RNA extracted (Qiagen RNEasy Mini kit, Cat #: 74104). RNA was sent to VANTAGE core at Vanderbilt University and sequenced on HiSeq 2500. n=3 for each sample was analyzed. Samples were analyzed using the R program DESeq2. GSEA was performed using MSigDB.
# Th1 and Th17 cells were skewed with or without CB839 over 5 days and total RNA extracted for RNAseq (Cat #: 74104). RNA was sent to VANderbilt Technologies for Advanced GEnomics (VANTAGE) core at Vanderbilt University. Libraries were prepared using 50 ng of total RNA using the NEBNext Ultra RNA Library Kit for Illumina (Cat #E7530) and sequenced on HiSeq3000 at 75 bp paired-end. Each sample was analyzed in triplicate. Sequencing reads were aligned against the Mouse GENCODE genome, Version M14 (Jan. 2017 freeze, GRCm38, Ensembl 89) using the Spliced Transcripts Alignment to a Reference (STAR) software (ref: 26187010 and 23104886). Reads were preprocessed and index using SAMtools (ref: 19505943). Mapped reads were assigned to gene features and quantified using featureCounts (ref: 24227677). Normalization and differential expression was performed using DESeq2 (Love et al., 2014). Skewed lymphocytes with and without CB839 were compared in both Th1 and Th17 groups. […] The top 200 most differentially expressed genes were used for unsupervised hierarchical cluster analysis and visualized using heatmap representations.
# [2] = system: CD4 T cells (Th0 conditions); test: CD4 T cells activated and cultured in IL2 (Th0 conditions), flow cytometry
# Th1 cells [3] = test: ATAC-Seq chromatin accessibility, Th1; type: cell-based, mouse; details: Th1, 500 nM CB839, day 5
# Method: as §1, with “MSigDB. […]” for “MSigDB.”
# [4] = Th1 Cells: Decreased Pathways, HALLMARK_ALLOGRAFT_REJECTION
# [5] = Th1 Cells: Decreased Pathways, HALLMARK_ANGIOGENESIS
# [6] = Th1 Cells: Decreased Pathways, HALLMARK_APICAL_JUNCTION
# [7] = Th1 Cells: Decreased Pathways, HALLMARK_APOPTOSIS
# [8] = Th1 Cells: Decreased Pathways, HALLMARK_COMPLEMENT
# [9] = Th1 Cells: Decreased Pathways, HALLMARK_EPITHELIAL_MESENCHYMAL_TRANSITION
# [10] = Th1 Cells: Decreased Pathways, HALLMARK_ESTROGEN_RESPONSE_EARLY
# [11] = Th1 Cells: Decreased Pathways, HALLMARK_INFLAMMATORY_RESPONSE
# [12] = Th1 Cells: Decreased Pathways, HALLMARK_INTERFERON_GAMMA_RESPONSE
# [13] = Th1 Cells: Decreased Pathways, HALLMARK_KRAS_SIGNALING_UP
# [14] = Th1 Cells: Decreased Pathways, HALLMARK_UV_RESPONSE_DN
# [15] = Th1 Cells: Increased Pathways, HALLMARK_DNA_REPAIR
# [16] = Th1 Cells: Increased Pathways, HALLMARK_E2F_TARGETS
# [17] = Th1 Cells: Increased Pathways, HALLMARK_ESTROGEN_RESPONSE_LATE
# [18] = Th1 Cells: Increased Pathways, HALLMARK_G2M_CHECKPOINT
# [19] = Th1 Cells: Increased Pathways, HALLMARK_GLYCOLYSIS
# [20] = Th1 Cells: Increased Pathways, HALLMARK_IL2_STAT5_SIGNALING
# [21] = Th1 Cells: Increased Pathways, HALLMARK_MITOTIC_SPINDLE
# [22] = Th1 Cells: Increased Pathways, HALLMARK_MTORC1_SIGNALING
# [23] = Th1 Cells: Increased Pathways, HALLMARK_MYC_TARGETS_V1
# [24] = Th1 Cells: Increased Pathways, HALLMARK_P53_PATHWAY
# [25] = activated CD4 T cells, IL2, day 5
structure (smiles),measurement,setting,value
O=C(Cc1cccc(OC(F)(F)F)c1)Nc1ccc(CCCCc2nnc(NC(=O)Cc3ccccn3)s2)nn1 [CB839],Pik3ip1 expression by RNA-Seq,Th1 cells [1]; Th1,most strongly downregulated
same,compensation by GLS2 at the RNA level,"Th1 cells [1]; Th1, CB839-treated",No compensation by GLS2 at the RNA level
same,direction of the 200 genes with the most altered expression,"Th1 cells [1]; Th1, CB839 vs vehicle",the majority showed increased expression
same,"gene set enrichment: cell cycle, mTORC1, Myc, IL2 signaling pathways","Th1 cells [1]; Th1, CB839 vs vehicle","upregulation of cell cycle, mTORC1, Myc, IL2 signaling, and glycolysis pathways; also recorded: upregulation of specific pathways including those related to cell cycle, mTORC1, Myc, and IL2 signaling"
same,# Genes in Overlap (k),Th1 cells [1]; [4],17
same,k/K,Th1 cells [1]; [4],0.085
same,# Genes in Overlap (k),Th1 cells [1]; [5],6
same,k/K,Th1 cells [1]; [5],0.1667
same,# Genes in Overlap (k),Th1 cells [1]; [6],16
same,k/K,Th1 cells [1]; [6],0.08
same,# Genes in Overlap (k),Th1 cells [1]; [7],13
same,k/K,Th1 cells [1]; [7],0.0807
same,# Genes in Overlap (k),Th1 cells [1]; [8],18
same,k/K,Th1 cells [1]; [8],0.09
same,# Genes in Overlap (k),Th1 cells [1]; [9],13
same,k/K,Th1 cells [1]; [9],0.065
same,# Genes in Overlap (k),Th1 cells [1]; [10],13
same,k/K,Th1 cells [1]; [10],0.065
same,# Genes in Overlap (k),Th1 cells [1]; [11],18
same,k/K,Th1 cells [1]; [11],0.09
same,# Genes in Overlap (k),Th1 cells [1]; [12],14
same,k/K,Th1 cells [1]; [12],0.07
same,# Genes in Overlap (k),Th1 cells [1]; [13],20
same,k/K,Th1 cells [1]; [13],0.1
same,# Genes in Overlap (k),Th1 cells [1]; [14],11
same,k/K,Th1 cells [1]; [14],0.0764
same,# Genes in Overlap (k),Th1 cells [1]; [15],28
same,k/K,Th1 cells [1]; [15],0.1867
same,# Genes in Overlap (k),Th1 cells [1]; [16],135
same,k/K,Th1 cells [1]; [16],0.675
same,# Genes in Overlap (k),Th1 cells [1]; [17],30
same,k/K,Th1 cells [1]; [17],0.15
same,# Genes in Overlap (k),Th1 cells [1]; [18],101
same,k/K,Th1 cells [1]; [18],0.505
same,# Genes in Overlap (k),Th1 cells [1]; [19],34
same,k/K,Th1 cells [1]; [19],0.17
same,# Genes in Overlap (k),Th1 cells [1]; [20],37
same,k/K,Th1 cells [1]; [20],0.185
same,# Genes in Overlap (k),Th1 cells [1]; [21],56
same,k/K,Th1 cells [1]; [21],0.28
same,# Genes in Overlap (k),Th1 cells [1]; [22],47
same,k/K,Th1 cells [1]; [22],0.235
same,# Genes in Overlap (k),Th1 cells [1]; [23],43
same,k/K,Th1 cells [1]; [23],0.215
same,# Genes in Overlap (k),Th1 cells [1]; [24],30
same,k/K,Th1 cells [1]; [24],0.15
same,Foxp3 expression,[2]; CD4+ T cells stimulated in the presence of IL-2 and CB839,unchanged
same,phospho-S6,[2]; Th0 cells in the presence of IL2,enhanced phospho-S6
same,IFNγ expression,[2]; [25],greater expression of IFNγ
same,Tbet expression,[2]; [25],greater expression
same,genes with regions of altered chromatin accessibility,Th1 cells [3],more genes with regions of increased accessibility than genes with decreased accessibility
